# Reference: publication PMC4822888, “Subtype-Selective Small Molecule Inhibitors Reveal a Fundamental Role for Nav1.7 in Nociceptor Electrogenesis, Axonal Conduction and Presynaptic Release” (PLoS ONE, 2016)
# Several values for one entry are separate records, joined by “and”; a condition that tells them apart may be missing. Equal entries are not always repeated.
# Key:
# [1] = molecular target: Cannabinoid receptor 1 (Homo sapiens, UniProt P21554); test: Off target activity panel; assay type: binding; conditions: read-out: Inhibition at test concentration (%)
# [2] = molecular target: Beta 1 adrenergic receptor (Homo sapiens, UniProt P08588); test: Off target activity panel; assay type: binding; conditions: read-out: Inhibition at test concentration (%)
# [3] = molecular target: Serotonin 5-HT6 (Homo sapiens, UniProt P50406); test: Off target activity panel; assay type: binding; conditions: read-out: Inhibition at test concentration (%)
# [4] = molecular target: cynNav1.7 (Macaca fascicularis, UniProt A0A2K5WIF4); test: cell-based; assay type: cell-based, cynomologus macaque
# [5] = molecular target: Melanin-concentrating hormone receptor 1 (Homo sapiens, UniProt Q99705); test: Off target activity panel; assay type: binding; conditions: read-out: Inhibition at test concentration (%)
# [6] = molecular target: Somatostatin receptor 4 (Homo sapiens, UniProt P31391); test: Off target activity panel; assay type: binding; conditions: read-out: Inhibition at test concentration (%)
# [7] = molecular target: Adenosine A1 receptor (Homo sapiens, UniProt P30542); test: Off target activity panel; assay type: binding; conditions: read-out: Inhibition at test concentration (%)
# [8] = system: GABAA channel; test: Off target activity panel; assay type: binding; conditions: 10 µM
# [9] = system: human DRG neurons (hDRG neurons); test: Voltage clamp of TTX-S current in human DRG neurons; assay type: cell-based
# [10] = molecular target: Melanocortin 4 receptor (Homo sapiens, UniProt P32245); test: Off target activity panel; assay type: binding; conditions: read-out: Inhibition at test concentration (%)
# [11] = system: Calcium channel L-type (diltiazem site); test: Off target activity panel; assay type: binding; conditions: 10 µM
# [12] = molecular target: T1, Kappa opioid receptor (Homo sapiens, UniProt P41145); test: Off target activity panel; assay type: binding
# [13] = molecular target: Serotonin 5-HT4 (Homo sapiens, UniProt Q13639); test: Off target activity panel; assay type: binding; conditions: read-out: Inhibition at test concentration (%)
# [14] = system: Calcium channel L-type (verapamil site); test: Off target activity panel; assay type: binding; conditions: 10 µM
# [15] = molecular target: Dopamine D2 receptor (Homo sapiens, UniProt P14416); test: Off target activity panel; assay type: binding; conditions: read-out: Inhibition at test concentration (%)
# [16] = molecular target: human TRPV1 receptor (Homo sapiens, UniProt Q8NER1); test: Blockade of human TRPV1 receptor
# [17] = molecular target: Serotonin 5-HT3 (Homo sapiens, UniProt P46098); test: Off target activity panel; assay type: binding; conditions: read-out: Inhibition at test concentration (%)
# [18] = molecular target: Matrix metalloprotease 9 (Homo sapiens, UniProt P14780); test: Off target activity panel; assay type: biochemical; conditions: read-out: Inhibition at test concentration (%)
# [19] = molecular target: PDE5 (Homo sapiens, UniProt O76074); test: Off target activity panel; assay type: biochemical; conditions: read-out: Inhibition at test concentration (%)
# [20] = molecular target: Beta 2 adrenergic receptor (Homo sapiens, UniProt P07550); test: Off target activity panel; assay type: binding; conditions: read-out: Inhibition at test concentration (%)
# [21] = system: AMPA receptor; test: Off target activity panel; assay type: binding; conditions: 10 µM
# [22] = molecular target: hERG potassium channels (Homo sapiens, UniProt Q12809)
# [23] = molecular target: KvLQT (Homo sapiens, UniProt P51787); test: Blockade of KvLQT potassium channels
# [24] = molecular target: Histamine H2 receptor (Homo sapiens, UniProt P25021); test: Off target activity panel; assay type: binding; conditions: read-out: Inhibition at test concentration (%)
# [25] = molecular target: Neurokinin NK1 receptor (Homo sapiens, UniProt P25103); test: Off target activity panel; assay type: binding; conditions: read-out: Inhibition at test concentration (%)
# [26] = molecular target: dogNav1.7 (Canis lupus familiaris, UniProt A0A8I3P4Z8); test: cell-based; assay type: cell-based, dog
# [27] = molecular target: Cyclooxegenase 2 (Homo sapiens, UniProt P35354); test: Off target activity panel; assay type: biochemical
# [28] = molecular target: PDE3B (Homo sapiens, UniProt Q13370); test: Off target activity panel; assay type: biochemical; conditions: read-out: Inhibition at test concentration (%)
# [29] = molecular target: Serotonin 5-HT2A (Homo sapiens, UniProt P28223); test: Off target activity panel; assay type: binding; conditions: read-out: Inhibition at test concentration (%)
# [30] = molecular target: Carbonic anhydrase II (Homo sapiens, UniProt P00918); test: Off target activity panel; assay type: biochemical; conditions: read-out: Inhibition at test concentration (%)
# [31] = molecular target: Serotinin 5-HT2B (Homo sapiens, UniProt P41595); test: Off target activity panel; assay type: binding; conditions: read-out: Inhibition at test concentration (%)
# [32] = molecular target: PDE2A (Homo sapiens, UniProt O00408); test: Off target activity panel; assay type: biochemical; conditions: read-out: Inhibition at test concentration (%)
# [33] = system: Cloride channel (GABA-gated); test: Off target activity panel; assay type: binding
# [34] = molecular target: Dopamine D1 receptor (Homo sapiens, UniProt P21728); test: Off target activity panel; assay type: binding; conditions: read-out: Inhibition at test concentration (%)
# [35] = molecular target: Monoamine oxidase A (Homo sapiens, UniProt P21397); test: Off target activity panel; assay type: biochemical; conditions: read-out: Inhibition at test concentration (%)
# [36] = molecular target: Abl kinase receptor (Homo sapiens, UniProt P00519); test: Off target activity panel; assay type: biochemical; conditions: read-out: Inhibition at test concentration (%)
# [37] = molecular target: Dopamine D4 receptor (Homo sapiens, UniProt P21917); test: Off target activity panel; assay type: binding; conditions: read-out: Inhibition at test concentration (%)
# [38] = molecular target: T1, Kappa opioid receptor; test: Off target panel, functional activity (agonist/antagonist); assay type: biochemical; conditions: at 10 µM
# [39] = system: Adrenergic alpha 1 receptor; test: Off target activity panel; assay type: binding; conditions: 10 µM
# [40] = system: human DRG neurons (hDRG neurons); test: Current clamp of action potentials in human DRG neurons; assay type: cell-based
# [41] = molecular target: Cannabinoid receptor 2 (Homo sapiens, UniProt P34972); test: Off target activity panel; assay type: binding; conditions: read-out: Inhibition at test concentration (%)
# [42] = system: GABA transporter; test: Off target activity panel; assay type: binding; conditions: 10 µM
# [43] = 10 µM, read-out: Inhibition at test concentration (%)
smiles,measurement,setting,value
"Nc1[nH]ncc1-c1cc(Cl)ccc1Oc1cc(F)c(S(=O)(=O)Nc2cscn2)cc1Cl [PF-05089771, 4-[2-(5-amino-1H-pyrazol-4-yl)-4-chlorophenoxy]-5-chloro-2-fluoro-N-(1,3-thiazol-4-yl)benzenesulfonamide]",inhibition at 10 µM,[1],0%
same,inhibition at 10 µM,[2],12%
same,inhibition at 10 µM,[3],2%
same,IC50,[4],12 nM
same,Slope,[4]; cynNav1.7,1.1
same,inhibition at 10 µM,[5],-7%
same,inhibition at 10 µM,[6],5%
same,inhibition at 10 µM,[7],15%
same,Inhibition at test concentration (%),[8],41%
same,Block of TTX-S current,"[9]; 30 nM, in presence of A-803467",75.5 ± 10.5%
same,Block of TTX-S current,[9]; 100 nM,complete block
same,IC50,"[9]; DRG neuron, read-out: IC50 for TTX-S current block",8.4 ± 1.2 nM
same,inhibition at 10 µM,[10],-11%
same,Inhibition at test concentration (%),[11],16%
same,inhibition at 10 µM,[12]; [43],86%
same,Ki,[12]; Kappa opioid receptor,390 nM
same,inhibition at 10 µM,[13],-7%
same,Inhibition at test concentration (%),[14],-6%
same,inhibition at 10 µM,[15],10%
same,Functional activity,"[16]; at 20 µM, TRPV1",No agonist or antagonist activity at 20 µM
same,Blockade of human TRPV1 receptor,[16]; tested concentrations up to 20 μM,No blockade
same,inhibition at 10 µM,[17],4%
same,inhibition at 10 µM,[18],-3%
same,inhibition at 10 µM,[19],7%
same,inhibition at 10 µM,[20],4%
same,Inhibition at test concentration (%),[21],-13%
same,IC50,[22],10000 nM
same,IC50,[23],10000 nM
same,inhibition at 10 µM,[24],-3%
same,inhibition at 10 µM,[25],5%
same,IC50,[26],13 nM
same,Slope,[26]; dogNav1.7,0.9
same,inhibition at 10 µM,[27]; [43],72%
same,Ki,[27]; Cyclooxegenase 2,5400 nM
same,inhibition at 10 µM,[28],4%
same,inhibition at 10 µM,[29],-2%
same,inhibition at 10 µM,[30],21%
same,inhibition at 10 µM,[31],-6%
same,inhibition at 10 µM,[32],9%
same,Inhibition at test concentration (%),[33]; 10 µM,54%
same,Ki,[33]; Cloride channel (GABA-gated),8300 nM
same,inhibition at 10 µM,[34],0%
same,inhibition at 10 µM,[35],-13%
same,inhibition at 10 µM,[36],9%
same,inhibition at 10 µM,[37],5%
same,Functional activity,[38],no agonist or antagonist activity at 10 µM
same,Inhibition at test concentration (%),[39],-5%
same,Neurons with action potential block,[40]; 30 nM,3 out of 7 and 3/7
same,Neurons with action potential failure,[40]; 100 nM,5 out of 8 and 5/8
same,inhibition at 10 µM,[41],-5%
same,Inhibition at test concentration (%),[42],1%
